Patent US20200024278A1, “COMPOSITION COMPRISING ANTIBIOTIC COMPOUND AND AN HETEROCYCLIC COMPOUND AND THEIR USE IN PREVENTING OR TREATING BACTERIAL INFECTIONS” (MUTABILIS, priority 2016, published 2020)

Columns and labels:
Experiment in all cases: MIC, broth microdilution (CLSI), substance alone or ATB combined with compound at 4 or 8 μg/mL
[1] = tested on: KPN 6299; type: cell-based, K. pneumoniae
Summary of the method: (§1)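 Antibiotic MICs were determined in presence of fixed compound at 4 or 8 μg/mL, and compound MICs alone, by visual growth inhibition. Inoculum 5·10^5 CFU/mL in ca-MHB, incubated 35 °C for 16-20 h per CLSI-M7-A7. Glucose-6-phosphate (25 μg/ml) added when fosfomycin was tested.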

[2] = tested on: KPN UFR42; type: cell-based, K. pneumoniae; conditions: KPN UFR42
Summary of the method: as §1

[3] = tested on: SPN 49619; type: cell-based, S. pneumoniae; conditions: SPN 49619
Summary of the method: as §1

[4] = tested on: PAE UFR90; type: cell-based, P. aeruginosa; conditions: PAE UFR90
Summary of the method: as §1

[5] = tested on: PAE UFR48; type: cell-based, P. aeruginosa; conditions: PAE UFR48
Summary of the method: as §1

[6] = tested on: PAE 105250; type: cell-based, P. aeruginosa; conditions: PAE 105250
Summary of the method: as §1

MIC ATB combined with Example 11 @8 μg/ml ([1]; with Example 11 at 8 μg/ml): <0.031 µg/mL | MIC ATB combined with Example 12 @8 μg/ml ([1]; with Example 12 at 8 μg/ml): <0.031 µg/mL | MIC ATB combined with Example 13 @8 μg/ml ([1]; with Example 13 at 8 μg/ml): 0.5 µg/mL | MIC ATB combined with Example 14 @8 μg/ml ([1]; with Example 14 at 8 μg/ml): <0.031 µg/mL | MIC ATB combined with Example 15 @4 μgml ([1]; with Example 15 at 4 μg/ml): <0.031 µg/mL | MIC ATB combined with Example 16 @4 μg/ml ([1]; with Example 16 at 4 μg/ml): <0.031 µg/mL | MIC ATB alone ([2]; antibiotic alone): 2 µg/mL | MIC ATB combined with Example 1 @8 μg/ml ([2]; with Example 1 @8 μg/ml): 2 µg/mL | MIC ATB combined with Example 1 @8 μg/ml ([2]; with Example 1 at 8 μg/ml): 2 µg/mL | MIC ATB combined with Example 7 @8 μgml ([2]; with Example 7 at 8 μg/ml): 0.5 µg/mL | MIC ATB combined with Example 9 @4 μg/ml ([2]; with Example 9 @4 μg/ml): 0.25 µg/mL | MIC ATB combined with Example 9 @4 μg/ml ([2]; with Example 9 at 4 μg/ml): 0.25 µg/mL | MIC ATB combined with Example 11 @8 μg/ml ([2]; with Example 11 at 8 μg/ml): <0.031 µg/mL | MIC ATB combined with Example 12 @8 μg/ml ([2]; with Example 12 at 8 μg/ml): <0.031 µg/mL | MIC ATB combined with Example 13 @8 μg/ml ([2]; with Example 13 at 8 μg/ml): 2 µg/mL | MIC ATB combined with Example 14 @8 μg/ml ([2]; with Example 14 at 8 μg/ml): <0.031 µg/mL | MIC ATB combined with Example 15 @4 μgml ([2]; with Example 15 at 4 μg/ml): <0.031 µg/mL | MIC ATB combined with Example 16 @4 μg/ml ([2]; with Example 16 at 4 μg/ml): <0.031 µg/mL | MIC ATB alone ([3]; antibiotic alone): 0.125 µg/mL | MIC ATB combined with Example 1 @8 μg/ml ([3]; with Example 1 @8 μg/ml): 0.125 µg/mL | MIC ATB combined with Example 1 @8 μg/ml ([3]; with Example 1 at 8 μg/ml): 0.125 µg/mL | MIC ATB combined with Example 7 @8 μgml ([3]; with Example 7 at 8 μg/ml): 0.063 µg/mL | MIC ATB combined with Example 9 @4 μg/ml ([3]; with Example 9 @4 μg/ml): <0.031 µg/mL | MIC ATB combined with Example 9 @4 μg/ml ([3]; with Example 9 at 4 μg/ml): <0.031 µg/mL | MIC ATB combined with Example 11 @8 μg/ml ([3]; with Example 11 at 8 μg/ml): <=0.031 μg/mL | MIC ATB combined with Example 12 @8 μg/ml ([3]; with Example 12 at 8 μg/ml): <0.031 µg/mL | MIC ATB combined with Example 13 @8 μg/ml ([3]; with Example 13 at 8 μg/ml): 0.063 µg/mL | MIC ATB combined with Example 14 @8 μg/ml ([3]; with Example 14 at 8 μg/ml): <0.031 µg/mL | MIC ATB combined with Example 15 @4 μgml ([3]; with Example 15 at 4 μg/ml): <=0.031 μg/mL | MIC ATB combined with Example 16 @4 μg/ml ([3]; with Example 16 at 4 μg/ml): <0.031 µg/mL | MIC ATB alone ([4]; antibiotic alone): 16 µg/mL | MIC ATB combined with Example 1 @8 μg/ml ([4]; with Example 1 @8 μg/ml): <0.031 µg/mL | MIC ATB combined with Example 1 @8 μg/ml ([4]; with Example 1 at 8 μg/ml): <0.031 µg/mL | MIC ATB combined with Example 7 @8 μgml ([4]; with Example 7 at 8 μg/ml): 32 µg/mL | MIC ATB combined with Example 9 @4 μg/ml ([4]; with Example 9 @4 μg/ml): 16 µg/mL | MIC ATB combined with Example 9 @4 μg/ml ([4]; with Example 9 at 4 μg/ml): 16 µg/mL | MIC ATB combined with Example 11 @8 μg/ml ([4]; with Example 11 at 8 μg/ml): 16 µg/mL | MIC ATB combined with Example 12 @8 μg/ml ([4]; with Example 12 at 8 μg/ml): 16 µg/mL | MIC ATB combined with Example 13 @8 μg/ml ([4]; with Example 13 at 8 μg/ml): 16 µg/mL | MIC ATB combined with Example 14 @8 μg/ml ([4]; with Example 14 at 8 μg/ml): 16 µg/mL | MIC ATB combined with Example 15 @4 μgml ([4]; with Example 15 at 4 μg/ml): 16 µg/mL | MIC ATB combined with Example 16 @4 μg/ml ([4]; with Example 16 at 4 μg/ml): 16 µg/mL | MIC ATB alone ([5]; antibiotic alone): 32 µg/mL | MIC ATB combined with Example 1 @8 μg/ml ([5]; with Example 1 @8 μg/ml): <0.031 µg/mL | MIC ATB combined with Example 1 @8 μg/ml ([5]; with Example 1 at 8 μg/ml): <0.031 µg/mL | MIC ATB combined with Example 7 @8 μgml ([5]; with Example 7 at 8 μg/ml): >32 µg/mL | MIC ATB combined with Example 9 @4 μg/ml ([5]; with Example 9 @4 μg/ml): 32 µg/mL | MIC ATB combined with Example 9 @4 μg/ml ([5]; with Example 9 at 4 μg/ml): 32 µg/mL | MIC ATB combined with Example 11 @8 μg/ml ([5]; with Example 11 at 8 μg/ml): 32 µg/mL | MIC ATB combined with Example 12 @8 μg/ml ([5]; with Example 12 at 8 μg/ml): 32 µg/mL | MIC ATB combined with Example 13 @8 μg/ml ([5]; with Example 13 at 8 μg/ml): 32 µg/mL | MIC ATB combined with Example 14 @8 μg/ml ([5]; with Example 14 at 8 μg/ml): 32 µg/mL | MIC ATB combined with Example 15 @4 μgml ([5]; with Example 15 at 4 μg/ml): 32 µg/mL | MIC ATB combined with Example 16 @4 μg/ml ([5]; with Example 16 at 4 μg/ml): 32 µg/mL | MIC ATB alone ([6]; antibiotic alone): 8 µg/mL | MIC ATB combined with Example 1 @8 μg/ml ([6]; with Example 1 @8 μg/ml): 0.5 µg/mL | MIC ATB combined with Example 1 @8 μg/ml ([6]; with Example 1 at 8 μg/ml): 0.5 µg/mL | MIC ATB combined with Example 7 @8 μgml ([6]; with Example 7 at 8 μg/ml): 32 µg/mL | MIC ATB combined with Example 9 @4 μg/ml ([6]; with Example 9 @4 μg/ml): 8 µg/mL | MIC ATB combined with Example 9 @4 μg/ml ([6]; with Example 9 at 4 μg/ml): 8 µg/mL | MIC ATB combined with Example 11 @8 μg/ml ([6]; with Example 11 at 8 μg/ml): 8 µg/mL | MIC ATB combined with Example 12 @8 μg/ml ([6]; with Example 12 at 8 μg/ml): 8 µg/mL | MIC ATB combined with Example 13 @8 μg/ml ([6]; with Example 13 at 8 μg/ml): 8 µg/mL | MIC ATB combined with Example 14 @8 μg/ml ([6]; with Example 14 at 8 μg/ml): 8 µg/mL | MIC ATB combined with Example 15 @4 μgml ([6]; with Example 15 at 4 μg/ml): 8 µg/mL | MIC ATB combined with Example 16 @4 μg/ml ([6]; with Example 16 at 4 μg/ml): 8 µg/mL
SMILES: CN(C)c1cc(NC(=O)CNC(C)(C)C)c(O)c2c1C[C@H]1C[C@H]3[C@H](N(C)C)C(O)=C(C(N)=O)C(=O)[C@@]3(O)C(O)=C1C2=O [TGC]
